Assay results from EP0151577B1 (priority 1983, dated 1984).

Key:
[1] = Acute toxicity, DL50 i.p.; assay type: in vivo, souris; settings: mouse, in vivo, ip, read-out: DL50 (ip)en toxicité aigue
Method: (§1) La valeur DL50 i.p. pour tous ces derives a été trouvée voisine de 800 mg/kg et la valeur DL 50 i.v. est supérieure a 5 g/kg.

souris [2] = assay: General pharmacological profile: spontaneous motor activity; assay type: in vivo
Description: (§2) Activite motrice spontanée: MODIGH, K., Central and peripheral effects of 5-hydroxytryptophan on motor activity in mice. Psychopharmacologia (Berlin), 23, 48, 1972. Cadence respiratoire: […], S., and VALZELLI, L. Serotonin and cardiovascular system, Chapter 9, in "Serotonin", Elsevier Publ. Co. Amsterdam 1965.

souris [3] = assay: General pharmacological profile: respiratory rate; assay type: in vivo; settings: for Cadence respira-toire: souris; for Cadence respiratoire: 100 mg/kg i.p., 15 min after administration, Tableau 3
Description: as §2
COHEN, Y. and BLANCHARD, P. Influence de la chelation du calcium sur les effets tensionnels de la sérotonine chez le chien. J. Physiol., 52, 569,1960.
BRAUNWALD, E. Control of myocardial oxygen consumption: Physiologic and clinical considerations. Am. J. Cardiol., 27 (4), 416,1971.

souris [4] = assay: Anticonvulsant activity, MES; assay type: in vivo; settings: for Activité anticonvulsivante 1. MES: 100 mg/kg i.p., 15 min after administration, Tableau 3
Description: Activite anticonvulsivante (MES): % de protection Temps de sommeil au pentobarbital: WYATT, R.J., ZARKONE, V. […], K., DEMENT, W.C., SMYDER, F. and SJOERDSMA, A., Effects of 5-Hydroxytryptophan on the sleep of normal human subjects. Electroencephaly and Clinical Neurophysiology 30, 5051971.

souris [5] = assay: Pentobarbital sleeping time; assay type: in vivo
Method: (§4) Les mesures ont été faites a 15, 30 et 60 minutes après I'administration par voie intrapéritonéale (i.p.) a des souris.

souris [6] = assay: Vertical pole climbing test; assay type: in vivo; settings: 100 mg/kg i.p., 15 min after administration
souris [7] = assay: Anticonvulsant activity, pentylenetetrazol; assay type: in vivo; settings: 100 mg/kg i.p., 15 min after administration
souris [8] = assay: Morphine test (antagonism); assay type: in vivo; settings: 100 mg/kg i.p., 15 min after administration
souris [9] = assay: Anti-stress activity: swimming endurance; assay type: in vivo; settings: 100 mg/kg i.p., souris observed up to 540 min; témoins 385 ± 31 min
Method: Au tableau 4, la lettre N designe le nombre d'animaux (souris). Un astérisque indique une activite importante. Deux astérisques indiquent une possibilité d'activité positive. Dans I'essai d'endurance a la nage, on a observe les souris jusqu'à 540 minutes, la durée moyenne de nage pour les souris témoins étant de 385 ± 31 minutes.
(N) - représente le nombre d'animaux * - activité importante ** - activite positive possible Pour I'endurance a la nage, les souris ont été observées jusqu'à 540 min, la durée moyenne de nage chez les souris témoins était de 385 + 31 min. *** - La leucocytose a été induite par 0,1 ml de lait (sous-cutanée) avant traitement avec le medicament.

Tension sanguine = assay: Cardiovascular activity: blood pressure; assay type: in vivo
Description: (§3) Le protocole experimental était celui décrit dans "Sugar Derivatives of Indolamines. part V: Cardiovascular Effects and "Anti-stress" Activity of Desoxyfructose Derivative of Serotonin and 5-Metho-xy- tryptamin", L. Mester, M. Mester, K.P. Bhargava, C. Labrid, G. Dureng and M. Cheucle, THROMBOSIS […], 15,245,1979.

Rythme cardiaque = assay: Cardiovascular activity: heart rate; assay type: in vivo
Description: as §3

[10] = test system: réponse à l'obstruction de la carotide; assay: Cardiovascular activity: response to carotid occlusion (CO); assay type: in vivo
Description: as §3

souris [11] = assay: Tremor score in mice pretreated with a MAO inhibitor (Harmaline); assay type: in vivo; settings: 75 mg/kg S.C., 1 h after Harmaline 25 mg/kg P.O., 5 souris, scored 5 to 75 min
Method: Les conditions expérimentales étaient les suivantes:
Chez des souris prétraitées par un inhibiteur de la MAO (Harmaline 25 mg/kg/ P.O.), I'injection de 5HTP (1 heure après l'IMAO) entraîne l'apparition de tremblements plus ou moins généralisés, accompagnés ou non d'hyperactivité motrice et qui sont dus a I'accumulation de sérotonine non dégradée au niveau des récepteurs post-synaptiques cérébraux. On peut établir pour chaque souris une cotation chiffrée suivant l'intensité des symptômes observes au cours du temps (cotation toutes les 5 min. entre la 5ème et la 45ème min. après I'injection de 5 HTP puis toutes les 15 min. jusqu'à la 75ème min.).
On additionne en une score total tous les chiffres obtenus aux différents temps sur des lots de 5 ou 10 souris.
Les actions du 5 HTP ont été comparées a celles du DF-5HTP.

souris [12] = assay: Catatonia; settings: 100 mg/kg i.p., 15 min after administration
souris [13] = assay: Rotarod test; settings: 100 mg/kg i.p.; témoin 11,3 ± 3,1
Method: as §4

souris [14] = assay: Inclined screen test (neurotoxicity); settings: 100 mg/kg i.p., 15 min after administration, Tableau 3
Method: as §4

souris [15] = assay: General pharmacological profile: defecation; settings: 100 mg/kg i.p., 15 min after administration, Tableau 3
Method: as §4

souris [16] = assay: General pharmacological profile: hypersensitivity to noise; settings: 100 mg/kg i.p., 15 min after administration, Tableau 3
Method: as §4

M. Leprae = assay: Incorporation of 3H-DOPA by M. leprae in vitro; assay type: cell-based, Mycobacterium leprae; settings: 6 h
Description: Le tableau 6 rassemble des résultats d'essai concernant l'activité du DF-5HTP sur l'incorporation de la DOPA dans les Mycobacteries de la lèpre. Le protocole experimental était celui décrit dans JAYARAMAN, P., […], P.R., MESTER, M. and MESTER, L. Inhibition of the incorporation of ^3H-DOPA in Mycobacterium leprae by Desoxyfructo-serotonin. Biochem. Pharm., 29, 2526,1980.
On a inoculé 5 x 10^6 M. leprae par tube; le milieu était un tampon phosphate à pH 6,8. La quantité de 3H-DOPA était de 1 µ. Ci/tube.
Protocole: Chaque tube de 0,5 ml est inocule de 5 x 10^6 M. leprae et de 1 µ Ci de ^3H-DOPA. Après 6 heures, I'incorporation de la DOPA radioactive est enregistrée en DPM selon la technique utilisée dans JAYARAMAN, P., […], P.R., MESTER, M. and MESTER, L. Inhibition of the Incorporation of ^3H-DOPA in Mycobacterium leprae by Desoxyfructo-serotonin. Biochem. Pharm., 29,2526,1980.

[17] = In vivo metabolism of radioactive compounds, hamster plasma; settings: au bout de 4 heures, figure 2
Description: La mesure de la radioactivite des diverses fractions isolées du sang des hamsters traités permet de caractériser les metabolites, lesquels sont ainsi isolés et identifies par électrophorèse. Les metabolites acides HIAA et IAA sont séparés ensemble.
On a porté le temps en abscisses (exprimé en heures) et en ordonnées le pourcentage du compose caractérisé dans le plasma.

[18] = test system: cellules des neuroblastomes; assay: Inhibition of serotonin incorporation into neuroblastoma cells in vitro; assay type: cell-based
souris [19] = assay: Acute toxicity, DL50 i.p.; assay type: in vivo
Method: as §1

souris [20] = assay: Motor activity (Photactametre); assay type: in vivo; settings: 100 mg/kg i.p., compared with 5HTP used as control
[21] = test system: 5-HT (dans tout le cerveau); assay: Amount of serotonin (5-HT) in whole brain, spectrophotofluorometric; assay type: in vivo, souris; settings: 160 mg/kg i.p., 15 min.; Solution Saline 60,0; mean of 4 souris
Description: Les quantités de sérotonine ont été estimees par une méthode spectrophotofluorométrique, telle que décrite par Solomon et al. Biochem. Pharmacology 14, 831 (1965). Les résultats de ces essais sont rassemblés dans le Tableau 10 ci-après.
• * Chaque valeur représente la moyenne de quatre animaux d'experience (souris) • ** La concentration de 5-HT est exprimée par gramme de tissu frais (cerveau).

[22] = 100 mg/kg i.p., 15 min after administration, Tableau 3
[23] = 100 mg/kg (ip), 15 min, Tableau 2
[24] = 10 mg par voie cérébroventriculaire

N[C@@H](Cc1c[nH]c2ccc(O)cc12)C(=O)O [5-HTP, 5-hydroxytryptophane, reference compound]
LD50 [1]: > 800 mg/kg
Activité motrice spontanée (souris [2]; 50 mg/kg (ip), souris): sans effet
Activité motrice spontanée (souris [2]; 100 mg/kg (ip), souris, Tableau 2): d'abord légère augmentation et ensuite dimi-nution légère
Activité motrice spontanée (souris [2]; [22]): Légère augmentation
Cadence respira-toire (souris [3]; 50 mg/kg (ip)): sans effet
Cadence respira-toire (souris [3]; 100 mg/kg (ip), Tableau 2): augmentation
Cadence respiratoire (souris [3]): Légère augmentation
Activité anticon-vulsivante MES % protection (souris [4]; 50 mg/kg (ip), 15 min): 20%
Activité anticon-vulsivante MES % protection (souris [4]; 50 mg/kg (ip), 30 min): 25%
Activité anticon-vulsivante MES % protection (souris [4]; 50 mg/kg (ip), 60 min): 25%
Activité anticon-vulsivante MES % protection (souris [4]; [23]): 50%
Activité anticon-vulsivante MES % protection (souris [4]; 100 mg/kg (ip), 30 min): 33,3%
Activité anticonvulsivante 1. MES (souris [4]): 60%
Temps de sommeil au pentobarbital % du témoin (témoin =100) (souris [5]; 50 mg/kg (ip), 15 min): 285 % du témoin
Temps de sommeil au pentobarbital % du témoin (témoin =100) (souris [5]; 50 mg/kg (ip), 30 min): 222 % du témoin
Temps de sommeil au pentobarbital % du témoin (témoin =100) (souris [5]; 50 mg/kg (ip), 60 min): 136 % du témoin
Temps de sommeil au pentobarbital % du témoin (témoin =100) (souris [5]; [23]): 295 % du témoin
Temps de sommeil au pentobarbital % du témoin (témoin =100) (souris [5]; 100 mg/kg (ip), 30 min): 276 % du témoin
Temps de sommeil au pentobarbital % du témoin (témoin =100) (souris [5]; 100 mg/kg (ip), 60 min): 279 % du témoin
Essai de grimpé sur un baton vertical (souris [6]): Sans effet
Activité anticonvulsivante 2.Pentylènetetrazol (souris [7]): 0%
Essai à la morphine (souris [8]): Négatif (pas d'antagonisme)
Endurance à la nage % d'augmentation (souris [9]): 40^** %
Tension sanguine Durée (Tension sanguine; [24]): 240 min
Tension sanguine Mesure à (Tension sanguine; [24]): 1 min
Tension sanguine Pic (Tension sanguine; [24]): 15 min
Tension sanguine Durée (Tension sanguine; 100 mg par voie intraveineuse): 60 min
Tension sanguine Mesure à (Tension sanguine; 100 mg par voie intraveineuse): 1 min
Tension sanguine Pic (Tension sanguine; 100 mg par voie intraveineuse): 10 min
Rythme cardiaque Durée (min) (Rythme cardiaque; [24]): non mani-fes-tae jus-qu'à 240
Rythme cardiaque Mesure à (Rythme cardiaque; [24]): 5 min
Rythme cardiaque Pic (Rythme cardiaque; [24]): 30 min
Rythme cardiaque Durée (Rythme cardiaque; 100 mg par voie intraveineuse): 60 min
Rythme cardiaque Mesure à (Rythme cardiaque; 100 mg par voie intraveineuse): 1 min
Rythme cardiaque Pic (Rythme cardiaque; 100 mg par voie intraveineuse): 30 min
REPONSE CO Durée [10, 24]: 105 min
REPONSE CO Mesure à [10, 24]: 1 min
REPONSE CO Pic [10, 24]: 10 min
REPONSE CO Durée ([10]; 100 mg par voie intraveineuse): 45 min
REPONSE CO Mesure à ([10]; 100 mg par voie intraveineuse): 5 min
REPONSE CO Pic ([10]; 100 mg par voie intraveineuse): 15 min
Score total (tremblements) (souris [11]): 146
Catatonie (souris [12]): non
Performance à l'essai Rotarod Moyenne (Sec) (souris [13]): 66,2 ± 6,4 (30) Sec
Tamis incliné (souris [14]): Pas d'effet neurotoxique
Défécation (souris [15]): oui
Hypersensibilité au bruit (souris [16]): oui

désoxyfructo-sérotonine [DF-5HT, reference compound]
incorporation de 3H-DOPA par M. Leprae (M. Leprae; 1 µg/ml, Armadillo M.Leprae N°2275/5, témoins 5977): 2431 DPM
incorporation de 3H-DOPA par M. Leprae (M. Leprae; 1 µg/ml, Armadillo M.Leprae N°2275/5 Tués par la chaleur, témoins 915): 410 DPM
incorporation de 3H-DOPA par M. Leprae (M. Leprae; 1 µg/ml, Armadillo M.Leprae N°2457/103, témoins 4215): 2575 DPM
incorporation de 3H-DOPA par M. Leprae (M. Leprae; 1 µg/ml, Armadillo M.Leprae N°2457/103 Tués par la chaleur, témoins 2855): 2110 DPM
incorporation de 3H-DOPA par M. Leprae (M. Leprae; 5 µg/ml, Armadillo M.Leprae N°2275/5, témoins 5977): 2264 DPM
incorporation de 3H-DOPA par M. Leprae (M. Leprae; 5 µg/ml, Armadillo M.Leprae N°2275/5 Tués par la chaleur, témoins 915): 566 DPM
incorporation de 3H-DOPA par M. Leprae (M. Leprae; 5 µg/ml, Armadillo M.Leprae N°2457/103, témoins 4215): 1485 DPM
incorporation de 3H-DOPA par M. Leprae (M. Leprae; 5 µg/ml, Armadillo M.Leprae N°2457/103 Tués par la chaleur, témoins 2855): 1640 DPM
niveau du compose non transformé dans le plasma [17]: insignifiante
% Inhibition à 0°C de l'incorporation de la sérotonine dans les cellules nerveuses ([18]; 0°C): 95%
% Inhibition à 25°C de l'incorporation de la sérotonine dans les cellules nerveuses ([18]; 10-^4 Mol, 25°C): 90%

désoxyribulo-5-hydroxytryptophane [Désoxy ribulo-5HTP]
DL50 (ip)en toxicité aigue (souris [19]): > 800 mg/kg
Activité motrice spontanée (souris [2]; [22]): sans effet
Cadence respiratoire (souris [3]): sans effet
Activité anticonvulsivante 1. MES (souris [4]): 20%
Temps de sommeil au pentobarbital % du témoin (Témoin à 100) (souris [5]; [22]): 309,2 % du témoin
Essai de grimpé sur un baton vertical (souris [6]): Sans effet
Activité motrice (Photactametre) (souris [20]): Augmentation pendant les 40 premières min. et ensuite diminution
Activité anticonvulsivante 2.Pentylènetetrazol (souris [7]): 0%
Essai à la morphine (souris [8]): Négatif (pas d'antagonisme)
Quantités de 5-HT (dans tout le cerveau) [21]: 92,5
